Assay results taken from patent US6342219B1 (Board of Regents, The University of Texas System, priority 1999, dated 2002).

Experiments:
[1] = test system: cancer patients having progressive disease; settings: patients having progressive disease before treatment; cited from earlier work
VEGFR2 (KDR/Fc) = experiment: Coprecipitation assay, VEGFR2/Fc; assay type: binding; settings: 40 ng VEGF, 200 ng receptor/Fc
Procedure: 200 ng of soluble forms of VEGFR1 (Flt-1/Fc) or VEGFR2 (KDR/Fc, R&D Systems, Minneapolis, Minn.) were added for a total volume of 50 μl and incubated for 2 hrs. The receptor/Fc constructs were precipitated using Protein A-sepharose beads and the resulting precipitate was washed 4 times with binding buffer.
Reducing sample buffer was added to the pellet and supernatant of each reaction and both were analyzed by 12% SDS-PAGE and transferred to PVDF membranes. […] The soluble receptor/Fc constructs were also detected by using peroxidase-conjugated goat anti-human Fc (Kirkegaard & Perry Laboratories, Inc.)
The receptor/Fc constructs were precipitated by incubation with Protein A sepharose beads. The precipitate was washed and resuspended in reducing sample buffer and separated by 12% SDS-PAGE and transferred to PVDF.

VEGFR1 = VEGFR1 (Homo sapiens, UniProt P17948); settings: read-out: Kd of VEGF binding to VEGFR1; Terman et al., 1994; cited from earlier work
[2] = test system: human NCI-H358 NSCLC tumors; assay type: in vivo, SCID mice
β-glucuronidase (GUS) = target: T1, β-glucuronidase (GUS) (Escherichia coli, UniProt P05804); experiment: Enzymatic activity of the GUS portion; assay type: biochemical, E. coli
T1 construct: made in house; host or cells: E. coli M15 cells
Text: The 6-His GUS was pure based upon SDS-PAGE, where it ran as a single band of 75 kDa band. On gel filtration columns, the 6-His GUS runs as a tetramer of about 300 kDa.
The biological activity of each component of the 2C3-GUS conjugate was confirmed.

[3] = Blood clearance of radioiodinated 2C3-GUS; assay type: in vivo; settings: mice, intravenous injection, 125I-labelled
Text: 2C3-GUS was radioiodinated with ^125I to a specific activity of 5×10^6 cpm/μg.

T1 sequence (P05804 whole entry): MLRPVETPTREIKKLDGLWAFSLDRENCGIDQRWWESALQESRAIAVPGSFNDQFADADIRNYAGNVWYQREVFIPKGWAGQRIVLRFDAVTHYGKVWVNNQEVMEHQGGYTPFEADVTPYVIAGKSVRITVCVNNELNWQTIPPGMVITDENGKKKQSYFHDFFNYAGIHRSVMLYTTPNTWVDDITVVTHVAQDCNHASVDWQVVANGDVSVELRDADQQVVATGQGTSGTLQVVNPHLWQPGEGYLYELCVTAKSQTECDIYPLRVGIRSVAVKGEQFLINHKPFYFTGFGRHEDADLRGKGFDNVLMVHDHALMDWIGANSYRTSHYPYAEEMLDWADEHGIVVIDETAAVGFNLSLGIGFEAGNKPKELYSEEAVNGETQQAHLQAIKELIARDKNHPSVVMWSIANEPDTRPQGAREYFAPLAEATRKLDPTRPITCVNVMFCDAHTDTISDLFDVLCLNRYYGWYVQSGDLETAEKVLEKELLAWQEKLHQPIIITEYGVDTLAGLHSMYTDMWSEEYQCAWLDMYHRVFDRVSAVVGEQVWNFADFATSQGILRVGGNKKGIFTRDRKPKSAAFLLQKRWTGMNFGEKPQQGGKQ
VEGFR1, sequence (P17948 27-1338): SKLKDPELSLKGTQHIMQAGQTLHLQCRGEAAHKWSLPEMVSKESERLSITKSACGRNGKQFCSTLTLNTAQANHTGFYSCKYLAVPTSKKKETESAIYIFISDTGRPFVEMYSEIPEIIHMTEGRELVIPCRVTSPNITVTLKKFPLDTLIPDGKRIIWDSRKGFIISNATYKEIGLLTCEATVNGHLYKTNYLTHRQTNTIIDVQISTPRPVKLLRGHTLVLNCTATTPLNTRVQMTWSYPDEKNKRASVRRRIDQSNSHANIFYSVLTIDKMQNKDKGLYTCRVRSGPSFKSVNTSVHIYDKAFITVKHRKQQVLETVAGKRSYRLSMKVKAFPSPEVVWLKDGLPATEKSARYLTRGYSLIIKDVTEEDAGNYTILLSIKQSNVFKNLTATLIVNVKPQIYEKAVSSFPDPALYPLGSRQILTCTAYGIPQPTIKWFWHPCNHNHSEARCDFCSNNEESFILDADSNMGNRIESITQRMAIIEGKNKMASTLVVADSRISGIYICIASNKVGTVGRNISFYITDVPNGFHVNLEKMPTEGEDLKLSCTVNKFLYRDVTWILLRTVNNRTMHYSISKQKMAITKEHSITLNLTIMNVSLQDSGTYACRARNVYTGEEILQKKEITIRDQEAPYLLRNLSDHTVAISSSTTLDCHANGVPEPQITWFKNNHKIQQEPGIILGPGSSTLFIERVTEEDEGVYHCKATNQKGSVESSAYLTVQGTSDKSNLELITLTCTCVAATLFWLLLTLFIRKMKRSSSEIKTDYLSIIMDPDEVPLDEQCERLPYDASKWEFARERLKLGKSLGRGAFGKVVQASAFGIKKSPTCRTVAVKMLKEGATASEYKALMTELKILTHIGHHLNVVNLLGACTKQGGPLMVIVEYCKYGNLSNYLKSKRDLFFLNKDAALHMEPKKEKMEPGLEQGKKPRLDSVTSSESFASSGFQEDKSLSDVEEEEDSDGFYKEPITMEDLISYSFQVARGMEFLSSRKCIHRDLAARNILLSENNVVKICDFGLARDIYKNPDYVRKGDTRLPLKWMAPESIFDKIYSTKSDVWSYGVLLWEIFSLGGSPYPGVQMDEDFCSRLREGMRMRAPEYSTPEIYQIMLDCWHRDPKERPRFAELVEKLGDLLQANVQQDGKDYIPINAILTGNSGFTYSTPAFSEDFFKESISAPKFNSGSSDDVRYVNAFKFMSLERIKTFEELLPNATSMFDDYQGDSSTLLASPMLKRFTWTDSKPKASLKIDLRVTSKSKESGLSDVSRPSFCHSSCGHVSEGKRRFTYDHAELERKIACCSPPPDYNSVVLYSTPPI

Q: With `NC(=O)c1nnn(Cc2cc(Cl)c(C(=O)c3ccc(Cl)cc3)c(Cl)c2)c1N` [CAI, carboxyamidotriazole] as the molecule, how does the “Disease stabilization, share of cancer patients” value [1] read?
A: Its value is 49%.

Q: With 2C3 F(ab′)2: F(ab′)2 of 2C3 as the molecule, how does the “Blocking of VEGF binding to VEGFR2/Fc in solution” value (VEGFR2 (KDR/Fc)) read?
A: The value was “blocked”.

Q: For VEGF, which Kd (VEGFR1) is on record?
A: The Kd was 0.015 to 0.1 nM.

Q: Which results are given for 2C3-GUS [Clone 2C3-GUS]?
A: Localization after i.v. injection ([2]; SCID mice bearing subcutaneous NCI-H358): specifically localized to tumor vasculature and surrounding tumor stroma; Staining of normal tissues ([2]; mouse, in vivo): unstained; Time of maximal localization after injection ([2]; mouse, in vivo, sc): 24 to 48 h; Enzymatic activity of the GUS portion (β-glucuronidase (GUS)): retained enzymatic activity; t½ α [3]: about 6 hours; t½ β [3]: about 25 hours
